From patent US20090088380A1, “GHRH ANALOGS AND THERAPEUTIC USES THEREOF” (priority 2007, published 2009)
Non-standard residues stand in square brackets, D forms with d. Residues, ends and D or L forms follow the SMILES beside them.

How the values were obtained:
Assay type in all cases: in vivo, human
endogenous GH secretion = test: Phase II CKD: 24-hour GH profile and deconvolution
Method: Blood samples for assessment of GH secretion had to be taken over 24 hours because the release of endogenous GH was pulsatile and not consistent throughout the day. Much of endogenous GH release is closely coupled to periods of slow-wave sleep, and the bulk of GH secretion usually occurs between midnight and 4 am. […] To document clearly the effect of the GHRH(1-29)NH2 synthetic analog on endogenous GH secretion, the following protocol had been designed: first, baseline endogenous GH secretion was assessed on Day 0 by sampling blood every 20 minutes for 20 hours and every 10 minutes for 4 hours. At the end of this sampling period (in the afternoon of Day 1), the first injection of the GHRH(1-29)NH2 synthetic analog was given. At the end of the 4-week treatment period (Day 28), GH secretion was reassessed by another 24-hour secretion profile. This profile started at 8:30 am with the morning injection of the GHRH(1-29)NH2 synthetic analog. Blood was collected every 10 minutes for the first 4 hours, followed by sampling every 20 minutes for the next 20 hours; this period included the afternoon injection of the GHRH(1-29)NH2 synthetic analog. In this way, it was possible to assess the evolution of both the pituitary's immediate GHRH response and that of time-integrated 24-hour GH secretion over extended treatment.
On Day 0 (baseline) and Day 28, subjects commenced 24-hour sampling at 10 and 20-minute intervals to construct a GH profile. […] The cannula was flushed with heparin-saline solution after each blood withdrawal to prevent clotting. Immediately before each blood collection, the residual heparin-saline volume instilled in the cannula was withdrawn with 0.5 mL blood in a separate syringe. This volume was reinjected after collection of the sample used for GH analysis.
At the baseline visit, blood sampling for the 24-hour GH profile commenced on Day 0 by taking samples at 20-minute intervals for 20 hours. Immediately at the end of this period, on the morning of Day 1, samples were taken at 10-minute intervals for 4 hours. The first dose of investigational product was not given before the end of the 24-hour GH profile period. On Day 28, samples were taken pre-dose, at 10-minute intervals for the first 4 hours (at the same time of day as the 4-hour period on Day 1) and at 20-minute intervals thereafter for a further 20 hours.
Samples were analysed for GH at the Department of Nephrology, Endocrinology and Metabolic Diseases, Silesian University School of Medicine, Katowice, Poland using a commercial kit.

[1] = system: malnourished subjects with CKD; test: Phase II CKD: abnormal findings on physical examination; details: safety analysis set
From the text: There were no body systems in which there was a trend towards change in physical examination. Any physical examination findings after the screening visit were reported as AEs.

[2] = system: malnourished subjects with CKD; test: Phase II CKD: abnormal and clinically significant clinical chemistry and blood gas values; details: for Subjects with abnormal and clinically significant ALT (%) / Subjects with abnormal and clinically significant AST (%) / Subjects with abnormal and clinically significant Calcium (%) / Subjects with abnormal and clinically significant Chloride (%) / Subjects with abnormal and clinically significant Creatinine (%) / Subjects with abnormal and clinically significant GGT (%) / Subjects with abnormal and clinically significant Phosphate (%) / Subjects with abnormal and clinically significant Potassium (%) / Subjects with abnormal and clinically significant Sodium (%) / Subjects with abnormal and clinically significant Urea (%): safety analysis set
From the text: The number of subjects with abnormal and clinically significant laboratory values at baseline and at Day 28 is presented in Table 35 (haematology) and Table 36 clinical chemistry. Overall, the number of subjects with abnormal and clinically significant laboratory values was similar in the GHRH(1-29)NH2 synthetic analog and placebo groups. No clear trends were observed.

CC[C@H](C)[C@H](NC(=O)[C@H](C)NC(=O)[C@H](CC(=O)O)NC(=O)[C@@H](C)NC(=O)[C@@H](N)Cc1ccc(O)cc1)C(=O)N[C@@H](Cc1ccccc1)C(=O)N[C@H](C(=O)N[C@@H](CC(N)=O)C(=O)N[C@@H](CO)C(=O)N[C@H](Cc1ccc(O)cc1)C(=O)N[C@@H](CCCNC(=N)N)C(=O)N[C@@H](CCCCN)C(=O)N[C@H](C(=O)N[C@@H](CC(C)C)C(=O)N[C@H](C)C(=O)N[C@@H](CCC(N)=O)C(=O)N[C@@H](CC(C)C)C(=O)N[C@@H](CO)C(=O)N[C@@H](C)C(=O)N[C@@H](CCCNC(=N)N)C(=O)N[C@@H](CCCCN)C(=O)N[C@@H](CCCCN)C(=O)N[C@@H](CC(C)C)C(=O)N[C@@H](CCC(N)=O)C(=O)N[C@@H](CC(=O)O)C(=O)N[C@H](C(=O)N[C@@H](CCSC)C(=O)N[C@@H](CO)C(=O)N[C@@H](CCCNC(=N)N)C(N)=O)[C@@H](C)CC)C(C)C)[C@@H](C)O [GHRH analog #5, [D-Ala^2, D-Tyr^10, D-Ala^15, Lys^22] hGHRH(1-29)-NH2] (H-Y[dA]DAIFTNS[dY]RKVL[dA]QLSARKKLQDIMSR-NH2)
GH concentration at 4 h: ratio (endogenous GH secretion; ITT, Day 28, vs placebo): 9.50 | Mean GH concentration first 4 hours: increase (endogenous GH secretion; ITT, baseline to day 28): 1136% | Mean concentration of GH secreted during the first 4 hours (endogenous GH secretion; ITT, day 28): 21.26 μIU/ml | Mean amount of GH secreted in 24 hours (AUC) (endogenous GH secretion; baseline): 3770.62 μIU/ml×min | Mean basal GH secretion rate (endogenous GH secretion; baseline): 26.9 mU/L/24 h | Mean concentration of GH (endogenous GH secretion; baseline): 2.49 μIU/ml | Mean 24-hour GH AUC: increase (endogenous GH secretion; baseline to day 28): 393% | Mean amount of GH secreted in 24 hours (AUC) (endogenous GH secretion; day 28): 18579.9 μIU/ml×min | Subjects with abnormal findings on physical examination: Cardiovascular (%) ([1]; Baseline): (46.2%) | Subjects with abnormal findings on physical examination: Central nervous system (%) ([1]; Baseline): (0.0%) | Subjects with abnormal findings on physical examination: Ear (%) ([1]; Baseline): (15.4%) | Subjects with abnormal findings on physical examination: Gastrointestinal (%) ([1]; Baseline): (30.8%) | Subjects with abnormal findings on physical examination: Genitourinary (%) ([1]; Baseline): (23.1%) | Subjects with abnormal findings on physical examination: Musculoskeletal (%) ([1]; Baseline): (53.8%) | Subjects with abnormal findings on physical examination: Nose and throat (%) ([1]; Baseline): (38.5%) | Subjects with abnormal findings on physical examination: Other (%) ([1]; Baseline): (23.1%) | Subjects with abnormal findings on physical examination: Respiratory (%) ([1]; Baseline): (0.0%) | Subjects with abnormal findings on physical examination: Skin (%) ([1]; Baseline): (69.2%) | Subjects with abnormal findings on physical examination: Cardiovascular (%) ([1]; Day 28): (25.0%) | Subjects with abnormal findings on physical examination: Central nervous system (%) ([1]; Day 28): (0.0%) | Subjects with abnormal findings on physical examination: Ear (%) ([1]; Day 28): (16.7%) | Subjects with abnormal findings on physical examination: Gastrointestinal (%) ([1]; Day 28): (41.7%) | Subjects with abnormal findings on physical examination: Genitourinary (%) ([1]; Day 28): (16.7%) | Subjects with abnormal findings on physical examination: Musculoskeletal (%) ([1]; Day 28): (50.0%) | Subjects with abnormal findings on physical examination: Nose and throat (%) ([1]; Day 28): (41.7%) | Subjects with abnormal findings on physical examination: Other (%) ([1]; Day 28): (41.7%) | Subjects with abnormal findings on physical examination: Respiratory (%) ([1]; Day 28): (8.3%) | Subjects with abnormal findings on physical examination: Skin (%) ([1]; Day 28): (75.0%) | Subjects with abnormal and clinically significant ALT (%) ([2]; Baseline): (0.0%) | Subjects with abnormal and clinically significant AST (%) ([2]; Baseline): (0.0%) | Subjects with abnormal and clinically significant Calcium (%) ([2]; Baseline): (0.0%) | Subjects with abnormal and clinically significant Chloride (%) ([2]; Baseline): (0.0%) | Subjects with abnormal and clinically significant Creatinine (%) ([2]; Baseline): (100.0%) | Subjects with abnormal and clinically significant GGT (%) ([2]; Baseline): (0.0%) | Subjects with abnormal and clinically significant Phosphate (%) ([2]; Baseline): (7.7%) | Subjects with abnormal and clinically significant Potassium (%) ([2]; Baseline): (30.8%) | Subjects with abnormal and clinically significant Sodium (%) ([2]; Baseline): (0.0%) | Subjects with abnormal and clinically significant Urea (%) ([2]; Baseline): (100.0%) | Number of subjects with abnormal and clinically significant bicarbonate ([2]; Day 28): 3 subjects | Number of subjects with abnormal and clinically significant calcium ([2]; Day 28): 3 subjects | Subjects with abnormal and clinically significant ALT (%) ([2]; Day 28): (8.3%) | Subjects with abnormal and clinically significant AST (%) ([2]; Day 28): (8.3%) | Subjects with abnormal and clinically significant Calcium (%) ([2]; Day 28): (25.0%) | Subjects with abnormal and clinically significant Chloride (%) ([2]; Day 28): (0.0%) | Subjects with abnormal and clinically significant Creatinine (%) ([2]; Day 28): (100.0%) | Subjects with abnormal and clinically significant GGT (%) ([2]; Day 28): (8.3%) | Subjects with abnormal and clinically significant Phosphate (%) ([2]; Day 28): (16.7%) | Subjects with abnormal and clinically significant Potassium (%) ([2]; Day 28): (25.0%) | Subjects with abnormal and clinically significant Sodium (%) ([2]; Day 28): (0.0%) | Subjects with abnormal and clinically significant Urea (%) ([2]; Day 28): (100.0%) | Number of subjects with abnormal and clinically significant bicarbonate ([2]; baseline): 2 subjects | Number of subjects with abnormal and clinically significant calcium ([2]; baseline): none
